PubChem BioAssay (NCI)
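Results reflect a 48-hour exposure of cells in 96-well plates to compound at five concentrations. At the GI50, growth is halved. TGI: total growth inhibition.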

Columns and labels:
Experiment in all cases: growth of human tumour cells (NCI), 48 h
SK-MEL-28 melanoma = system: SK-MEL-28 melanoma
SR leukemia = system: SR leukemia
MALME-3M melanoma = system: MALME-3M melanoma
SK-OV-3 ovarian = system: SK-OV-3 ovarian
TK-10 renal = system: TK-10 renal
RPMI-8226 leukemia = system: RPMI-8226 leukemia
BT-549 breast = system: BT-549 breast
RXF 393 renal = system: RXF 393 renal
HT29 colon = system: HT29 colon
UACC-62 melanoma = system: UACC-62 melanoma

CCCCNC(=O)Oc1ccc2c(=O)c3sc4c(=O)c5ccccc5c(=O)c4c3c(=O)c2c1
GI50 (SK-MEL-28 melanoma): 224 nM | TGI (SK-MEL-28 melanoma): 524 nM | GI50 (SR leukemia): 770 nM | TGI (SR leukemia): > 100000 nM | GI50 (MALME-3M melanoma): 117 nM | TGI (MALME-3M melanoma): 273 nM | GI50 (SK-OV-3 ovarian): 1400 nM | TGI (SK-OV-3 ovarian): 2800 nM | GI50 (TK-10 renal): 2190 nM | TGI (TK-10 renal): 3780 nM | GI50 (RPMI-8226 leukemia): 1160 nM | TGI (RPMI-8226 leukemia): 4420 nM | GI50 (BT-549 breast): 154 nM | TGI (BT-549 breast): 293 nM | GI50 (RXF 393 renal): 1200 nM | TGI (RXF 393 renal): 2540 nM | GI50 (HT29 colon): 2310 nM | TGI (HT29 colon): 5600 nM | GI50 (UACC-62 melanoma): 170 nM | TGI (UACC-62 melanoma): 336 nM

O=C1/C=C/[C@@H](O)[C@@H]2C[C@@H](O)C[C@H]2/C=C/CCC[C@H](CO)O1
GI50 (SK-MEL-28 melanoma): 626 nM | TGI (SK-MEL-28 melanoma): 3650 nM | GI50 (SR leukemia): 2500 nM | TGI (SR leukemia): > 100000 nM | GI50 (MALME-3M melanoma): 1930 nM | TGI (MALME-3M melanoma): 7190 nM | GI50 (SK-OV-3 ovarian): 4620 nM | TGI (SK-OV-3 ovarian): > 100000 nM | GI50 (TK-10 renal): 3060 nM | TGI (TK-10 renal): 10900 nM | GI50 (RPMI-8226 leukemia): 3320 nM | TGI (RPMI-8226 leukemia): > 100000 nM | GI50 (BT-549 breast): 3980 nM | TGI (BT-549 breast): > 100000 nM | GI50 (RXF 393 renal): 1610 nM | TGI (RXF 393 renal): 5040 nM | GI50 (HT29 colon): 942 nM | TGI (HT29 colon): 12400 nM | GI50 (UACC-62 melanoma): 2550 nM | TGI (UACC-62 melanoma): > 100000 nM

COc1cccc(-c2nc(-c3ccc(NC(=O)c4ccccc4)cc3)[nH]c2-c2ccnc(Br)c2)c1
GI50 (SK-MEL-28 melanoma): 3000 nM | TGI (SK-MEL-28 melanoma): > 100000 nM | GI50 (SR leukemia): 1940 nM | TGI (SR leukemia): > 100000 nM | GI50 (MALME-3M melanoma): 2860 nM | TGI (MALME-3M melanoma): > 100000 nM | GI50 (SK-OV-3 ovarian): 3050 nM | TGI (SK-OV-3 ovarian): 8240 nM | GI50 (TK-10 renal): 6920 nM | TGI (TK-10 renal): > 100000 nM | GI50 (RPMI-8226 leukemia): 398 nM | TGI (RPMI-8226 leukemia): 2110 nM | GI50 (BT-549 breast): 3300 nM | TGI (BT-549 breast): > 100000 nM | GI50 (RXF 393 renal): 266 nM | TGI (RXF 393 renal): 810 nM | GI50 (HT29 colon): 2690 nM | TGI (HT29 colon): > 100000 nM | GI50 (UACC-62 melanoma): 2950 nM | TGI (UACC-62 melanoma): > 100000 nM

N#C/C(=C/C=C/c1ccccc1)S(=O)c1ccccc1 (stereo not given)
GI50 (SK-MEL-28 melanoma): 565 nM | TGI (SK-MEL-28 melanoma): 1960 nM | GI50 (SR leukemia): 281 nM | TGI (SR leukemia): 4510 nM | GI50 (MALME-3M melanoma): 796 nM | TGI (MALME-3M melanoma): 2500 nM | GI50 (SK-OV-3 ovarian): 2500 nM | TGI (SK-OV-3 ovarian): 10900 nM | GI50 (TK-10 renal): 501 nM | TGI (TK-10 renal): 1850 nM | GI50 (RPMI-8226 leukemia): 351 nM | TGI (RPMI-8226 leukemia): 1320 nM | GI50 (BT-549 breast): 712 nM | TGI (BT-549 breast): 2350 nM | GI50 (RXF 393 renal): 385 nM | TGI (RXF 393 renal): 1470 nM | GI50 (HT29 colon): 366 nM | TGI (HT29 colon): 2170 nM | GI50 (UACC-62 melanoma): 435 nM | TGI (UACC-62 melanoma): 1890 nM

COc1c(B(O)O)cccc1-c1nc2c(F)cc3[nH]ncc3c2c2c1CCCC2
GI50 (SK-MEL-28 melanoma): 2950 nM | TGI (SK-MEL-28 melanoma): 11300 nM | GI50 (SR leukemia): 2130 nM | TGI (SR leukemia): > 88500 nM | GI50 (MALME-3M melanoma): 3710 nM | TGI (MALME-3M melanoma): 9110 nM | GI50 (SK-OV-3 ovarian): 1500 nM | TGI (SK-OV-3 ovarian): 36100 nM | GI50 (TK-10 renal): 39.1 nM | TGI (TK-10 renal): > 38400 nM | GI50 (RPMI-8226 leukemia): 579 nM | TGI (RPMI-8226 leukemia): 4590 nM | GI50 (BT-549 breast): 116 nM | TGI (BT-549 breast): 3020 nM | GI50 (RXF 393 renal): 45.9 nM | TGI (RXF 393 renal): 1670 nM | GI50 (HT29 colon): 3070 nM | TGI (HT29 colon): > 44000 nM | GI50 (UACC-62 melanoma): 1140 nM | TGI (UACC-62 melanoma): 9530 nM
